Assay results reported in ChEMBL document CHEMBL1201862, “PubChem BioAssay data set” (2004).
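Interpolation was linear, between the two tested concentrations surrounding the appropriate level; five concentrations were tested over 48 hours in 96-well plates. Abbreviation: GI50, concentration required for 50% inhibition of growth.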 Calls of active or inactive are those of the source. Cut-off read from the data, not from the text of the source: active = GI50 up to about 1.1 µM and inactive = higher.

Tests used:
Test in all cases: inhibition of tumour cell growth, NCI panel, 48 h
[1] = tested on: HT-29
[2] = tested on: OVCAR-5
[3] = tested on: NCI/ADR-RES
[4] = tested on: CAKI-1
[5] = tested on: SN12C
[6] = tested on: SK-OV-3
[7] = tested on: HL-60
[8] = tested on: SK-MEL-5
[9] = tested on: SF-539
[10] = tested on: KM12
[11] = tested on: MOLT-4
[12] = tested on: HCT-15
[13] = tested on: ACHN
[14] = tested on: COLO 205
[15] = tested on: SK-MEL-2
[16] = tested on: U-251
[17] = tested on: Hs-578T
[18] = tested on: CCRF-CEM
[19] = tested on: EKVX
[20] = tested on: T47D
[21] = tested on: NCI-H23
[22] = tested on: RXF 393
[23] = tested on: SNB-19
[24] = tested on: A549
[25] = tested on: MDA-MB-231
[26] = tested on: UO-31
[27] = tested on: MDA-MB-435
[28] = tested on: RPMI-8226
[29] = tested on: SF-295
[30] = tested on: MCF7
[31] = tested on: SW-620
[32] = tested on: BT-549
[33] = tested on: 786-0
[34] = tested on: M14
[35] = tested on: NCI-H460
[36] = tested on: HCT-116
[37] = tested on: NCI-H522
[38] = tested on: OVCAR-8
[39] = tested on: IGROV-1
[40] = tested on: NCI-H226
[41] = tested on: SR
[42] = tested on: UACC-257
[43] = tested on: SNB-75
[44] = tested on: SF-268
[45] = tested on: PC-3
[46] = tested on: MDA-N
[47] = tested on: DU-145
[48] = tested on: HOP-92
[49] = tested on: Malme-3M
[50] = tested on: K562
[51] = tested on: TK-10
[52] = tested on: SK-MEL-28
[53] = tested on: HCC 2998
[54] = tested on: OVCAR-3
[55] = tested on: HOP-62
[56] = tested on: UACC-62

## CC(C)=NNc1cnnc2ccc([N+](=O)[O-])cc12
[1]
  GI50: > 100 µM (inactive)
[2]
  GI50: > 100 µM (inactive)
[3]
  GI50: > 100 µM (inactive)
[4]
  GI50: 52 µM (inactive)
[5]
  GI50: 36.1 µM (inactive)
[6]
  GI50: > 100 µM (inactive)
[7]
  GI50: 16.3 µM (inactive)
[8]
  GI50: 55.3 µM (inactive)
[9]
  GI50: > 100 µM (inactive)
[10]
  GI50: > 100 µM (inactive)
[11]
  GI50: 37.2 µM (inactive)
[12]
  GI50: 57.5 µM
[13]
  GI50: 23.9 µM (inactive)
[14]
  GI50: 36.6 µM (inactive)
[15]
  GI50: > 100 µM (inactive)
[16]
  GI50: > 100 µM (inactive)
[17]
  GI50: > 100 µM (inactive)
[18]
  GI50: 32.9 µM (inactive)
[19]
  GI50: > 100 µM (inactive)
[20]
  GI50: 65.2 µM (inactive)
[21]
  GI50: > 100 µM (inactive)
[22]
  GI50: > 100 µM (inactive)
[23]
  GI50: > 100 µM (inactive)
[24]
  GI50: > 100 µM (inactive)
[25]
  GI50: 59.7 µM (inactive)
[26]
  GI50: 35.2 µM (inactive)
[27]
  GI50: 67.8 µM (inactive)
[28]
  GI50: 31.6 µM (inactive)
[29]
  GI50: > 100 µM (inactive)
[30]
  GI50: 57.8 µM (inactive)
[31]
  GI50: > 100 µM (inactive)
[32]
  GI50: > 100 µM (inactive)
[33]
  GI50: 51.3 µM (inactive)
[34]
  GI50: 78 µM (inactive)
[35]
  GI50: 33.3 µM (inactive)
[36]
  GI50: 59.6 µM (inactive)
[37]
  GI50: 15.5 µM (inactive)
[38]
  GI50: > 100 µM (inactive)
[39]
  GI50: 21.4 µM (inactive)
[40]
  GI50: > 100 µM (inactive)
[41]
  GI50: 30.3 µM (inactive)
[42]
  GI50: > 100 µM (inactive)
[43]
  GI50: 58.9 µM (inactive)
[44]
  GI50: > 100 µM (inactive)
[45]
  GI50: > 100 µM (inactive)
[46]
  GI50: 47.2 µM (inactive)
[47]
  GI50: > 100 µM (inactive)
[48]
  GI50: > 100 µM (inactive)
[49]
  GI50: 63.8 µM (inactive)

## COc1ccc(/N=C2\C(=N/c3ccc(OC)cc3)N(S(=O)(=O)c3ccccc3)C(=S)N2c2ccccc2)cc1
[50]
  GI50: > 100 µM (inactive)
[1]
  GI50: > 100 µM (inactive)
[2]
  GI50: > 100 µM (inactive)
[3]
  GI50: > 100 µM (inactive)
[51]
  GI50: > 100 µM (inactive)
[4]
  GI50: > 100 µM (inactive)
[5]
  GI50: > 100 µM (inactive)
[6]
  GI50: > 100 µM (inactive)
[8]
  GI50: > 100 µM (inactive)
[9]
  GI50: > 100 µM (inactive)
[52]
  GI50: > 100 µM (inactive)
[10]
  GI50: > 100 µM (inactive)
[11]
  GI50: > 100 µM (inactive)
[12]
  GI50: > 100 µM
[13]
  GI50: > 100 µM (inactive)
[14]
  GI50: > 100 µM (inactive)
[15]
  GI50: > 100 µM (inactive)
[16]
  GI50: > 100 µM (inactive)
[17]
  GI50: > 100 µM (inactive)
[19]
  GI50: > 100 µM (inactive)
[20]
  GI50: > 100 µM (inactive)
[21]
  GI50: > 100 µM (inactive)
[22]
  GI50: > 100 µM (inactive)
[23]
  GI50: > 100 µM (inactive)
[24]
  GI50: > 100 µM (inactive)
[25]
  GI50: > 100 µM (inactive)
[26]
  GI50: > 100 µM (inactive)
[27]
  GI50: > 100 µM (inactive)
[28]
  GI50: > 100 µM (inactive)
[29]
  GI50: > 100 µM (inactive)
[30]
  GI50: > 100 µM (inactive)
[31]
  GI50: > 100 µM (inactive)
[32]
  GI50: > 100 µM (inactive)
[33]
  GI50: > 100 µM (inactive)
[34]
  GI50: > 100 µM (inactive)
[35]
  GI50: > 100 µM (inactive)
[37]
  GI50: 86.3 µM (inactive)
[53]
  GI50: > 100 µM (inactive)
[38]
  GI50: > 100 µM (inactive)
[39]
  GI50: > 100 µM (inactive)
[40]
  GI50: > 100 µM (inactive)
[41]
  GI50: > 100 µM (inactive)
[42]
  GI50: > 100 µM (inactive)
[43]
  GI50: > 100 µM (inactive)
[44]
  GI50: > 100 µM (inactive)
[45]
  GI50: > 100 µM (inactive)
[46]
  GI50: > 100 µM (inactive)
[54]
  GI50: > 100 µM (inactive)
[55]
  GI50: > 100 µM (inactive)
[47]
  GI50: > 100 µM (inactive)
[48]
  GI50: > 100 µM (inactive)
[56]
  GI50: > 100 µM (inactive)
[49]
  GI50: > 100 µM (inactive)
